Results taken from patent US5302611A, “Oxindole alkaloids having properties stimulating the immunologic system & preparation containing the same” (Keplinger; Klaus, priority 1980, dated 1994).
Like-named read-outs stand apart in the source and are kept apart here.

Columns and labels:
macrophage-phagocytosis = conditions: concentrations of 10^-4 % and 10^-5 %; cited from earlier work
[1] = tested on: neutrophil granulocytes (PMNL); experiment: Granulocytic test modified after BRANDT (phagocytosis of yeast particles); assay type: cell-based, human; conditions: up to dilutions of 10^-6 %
Source text: 1. […] They represent about 60-70% of all leucocytes in the human blood. The phagocytosis effect of all these granulocytes can be measured in vitro according to a method developed by BRAND (Scand. J. Haematol. Suppl. 2, 1967) and modified by TYMPNER (Munich Med. Weekly 8, 251, 1978).
A granulocytic fraction is taken from the blood of healthy probands (PMNL--abbreviation of polymorphonuclearleucocytes)
This PMNL-fraction mainly consists of neutrophil granulocytes and few eosinophil and basophil granulocytes as well as of lymphocytes, monocytes and thrombocytes. After addition of a defined amount of yeast cells (Saccharomyces cerevisiae) and the substance to be tested incubation is carried out for 10 minutes at 37° C., the suspension is spread on an object carrier and incubated at room temperature for further 35 minutes. Then the spreads are coloured and microscopically evaluated. 100 PMNL-cells are selected per object carrier, and it is determined how many yeast particles of the individual cells have been phagocytised. The phagocytosis index indicates the average number of phagocytised yeast particles.
15 ml of heparinised venous blood of clinically healthy adults was diluted with 1.5% of dextran T 500 (Pharmacia) 2:1 and allowed to stand at room temperature for 30 minutes. The supernatant containing leucocytes was injected into a sterile plastic tube and centrifugated for 7 minutes at 500 r.p.m. The granulocytes in the deposit were washed twice with 5 ml of PPM I-buffer in each case. Then the granulocytes were suspended in about 5 ml of buffer and adjusted in the Neubauer's chamber to a concentration of 5×10^6 cells/ml.
Yeast suspended in 0.9% of NaCl was heated to 100° C., three times filtered through gaze and adjusted to 3-5×10^7 particles/ml.
The serum of 5 clinically healthy adults was mixed and frozen in portions of 5 ml. For the test dilution was carried out with 0.9% of NaCl 1:10.
The test was carried out as follows: 0.2 ml of substance dissolved in 0.9% of NaCl and 0.2 ml of 0.9% NaCl, as a control substance, were pipetted to 0.2 ml, each, of pool serum, granulocyte- and yeast suspension and first incubated for 10 minutes at 37° C. Then 0.5 ml of each preparation were applied to an object carrier and incubated in a humid chamber at room temperature for further 35 minutes. Granulocytes deposited, the supernatant was carefully washed with 0.9% of NaCl, and the object carrier was dried with a dryer.
100 granulocytes were counted out per object carrier, and it was determined how many yeast particles of the individual cells had been phagocytised. The phagocytosis index (PJ) indicates the average number of yeast particles per granulocyte. The increase (S) of the phagocytosis activity in the blank value was calculated according to: [formula]

[2] = tested on: isolated polymorphonuclear leucocytes (PMNL); experiment: Chemiluminescence test (CL), PMNL method (isolated granulocytes); assay type: cell-based, human; conditions: for Peak-Maximum: control 2.12; for tmax: control 50.0
Protocol: (§1) 2. Chemiluminescence test (CL)
(§2) The low light yield of such CL-reactions of phagocytised cells is increased in the in-vitro-experiment by the addition of substances which are oxydated by activated oxygen and thus produce light of a certain wavelength, which can be physically measured. Suitable substrates are luminole (5-amino-2,3-dihydro-1,4-phthalazindione) and lucigenine (10,10'-dimethyl-9,9'-biacri-diniumdinitrate), which increase the CL-response by 10^3 times.
(§3) All tests were carried out in 6-channel-Biolumat LB 9505 of Berthold, connected to an Apple-computer with a CL-evaluation program of Berthold.
(§4) Lucigenine was chosen for light amplification which emits photons at a narrow wavelength distribution of about 510 nm and thus almost lies in the optimum of the photo-multiplier sensitivity.
(§5) The pH-value of the measuring solution should be between 7.1 and 7.4, which is obtained by the addition of veronal-buffered salt solution. The test substances were dissolved in phosphate-buffered salt solution, (PBS-buffer). Both buffer systems contain 0.1% of glucose, because the "respiratory-burst"-reaction is connected with an increase of the glucose-metabolism.
(§6) Opsonised zymosan was used for phagocyte-activation. The measurement of the CL of isolated granulocytes was carried out with native blood of isolated polymorphonuclear leucocytes (PMNL), which had been adjusted with PBS-Puffer to 10^6 […].
(§7) The test substances were first together with the isolated granulocytes or with the whole blood incubated at room temperature for 10 minutes and then in biclumate for 10 minutes at 37° C. After addition of the opsonised zymosan, measurement in the biolumat at 37° C. started. […] A curve which was typical for each substance was obtained. The integrated surfaces are directly proportional to the intensity of the CL-response.
(§8) For determining the stimulation of the "respiratory-burst" of granulocytes,which had taken place, the same formula as for the granulocytic test was used.
20 ml of native blood were mixed with 30 mg EDTA. 15 ml of this blood were mixed with 7 ml of dextran in a syringe and allowed to stand at room temperature for 30 minutes. The leucocyte-containing supernatant was transfered into a sterile centrifugal tube and centrifugated at 1000 r.p.m. for 10 minutes. The deposit consisted of leucocytes and residual portions of erythrocytes, which can influence measurement by their colour quench. The residual erythrocytes were removed by hypotonic lyis. For this purpose, the deposit was suspended in 0.25% of NaCl-solution and agitated on the whirlmix for 20 seconds. Then 20 ml of 1.6% NaCl-solution were admixed and agitated again. After centrifugation at 2000 r.p.m. for 10 minutes, the supernatant was sucked off and the whole process was repeated twice. Subsequently, the deposit was suspended in 2 ml of PBS-buffer and diluted 1:10 with Turcks-solution. It was adjusted in the Neubauer's chamber with PBS-buffer to 10^6 -cells/ml.
630 μl of veronal-buffered salt solution
(§9) 100 μl of lucigenine-solution
(§10) 200 μl of substance dissolved in PBS and PBS as control
(§11) After preincubation at room temperature for 10 minutes and subsequent incubation for 10 minutes at 37° C. in 6-channel-Biolumat, 40 μl of opsonised zymosan were admixed under through stirring and measurement was started. Measuring was stopped after 60 minutes.
(§12) The CL-response of the samples was stored by a computer over the measuring period, and after measurement illustrated in the form of a curve. By integration of the surfaces, the intensity of the CL-response of the respective sample was obtained in cpm.
(§13) The increase S of the CL-response by a test substance was calculated according to [formula]

diluted whole blood = experiment: Chemiluminescence test (CL), whole blood method; assay type: cell-based; conditions: Homo sapiens, 1 h, read-out: Percental increase of the CL-response
Protocol: as §1, §2, §3, §4, §5, §6, §7, §8
20 ml of native blood were mixed with 30 mg EDTA as anti-coagulant and diluted 1:100 with PBS-buffer.
460 μl of veronal-buffered salt solution
200 μl of diluted whole blood
as §9, §10, §11, §12, §13

[3] = tested on: ascites cells of Walker-250-carcinosarcoma; experiment: Cytotoxicity test by the 3H-thymidine-incorporation test on ascites cells; assay type: cell-based, rats; conditions: Rattus norvegicus, read-out: mean value of the inhibition of 3H-thymidine incorporation
Source text: 5. Cytotoxicity test by the ^3 H-thymidine-incorporation test on ascites cells
Since in the granulocytic test some substances lyse the granulocytes at high concentrations we examined the cell-damaging effect at the model of the ^3 H-thymidine-incorporation test in ascites cells to be able to find a possible relation between the phagocytosis increase and cytotoxicity in potential active substances.
In this in-vitro-test system according to WEITZEL et al (H oppe-Seyler's Z. physiolog. Chem. 348, 433, 1967) the cytotoxicity of substances by inhibition of the DNA-synthesis of tumour cells can be numerically determined by the changed incorporation rates of ^3 H-thymidine in ascites cells of Walter-250-carcinos arcoma of rats.
The test was carried out as follows: 3 ml of cell suspension of Walker-250-carcinosarcoma-ascites were mixed with 10 ml of MEDIUM L-15 (Boehringer) in a 50 ml centrifugal glass and centrifugated for 10 minutes. The supernatant was decanted and the centrifugal glass was filled up with medium to 1 cm below the rim. From the stirred cell suspension 1 ml (corresponds to 2×10^6 cells/ml) per sample was given into a centrifugal glass and 500 μl of the test solution were added, the control test was carried out with 500 μl of medium. […] The filters were given in polyethylene flasks and the activities were measured in toluene-scintillator. […]

[4] = isolated granulocytes, concentration 10^-4 %
[5] = isolated granulocytes, concentration 10^-5 %
[6] = isolated granulocytes, concentration 10^-6 %
[7] = isolated granulocytes, concentration 10^-7 %
[8] = isolated granulocytes, concentration 10^-8 %

For CC[C@]1(O)C[C@H]2CN(CCc3c([nH]c4ccccc34)[C@@](C(=O)OC)(c3cc4c(cc3OC)N(C=O)[C@H]3[C@@](O)(C(=O)OC)[C@H](OC(C)=O)[C@]5(CC)C=CCN6CC[C@]43[C@@H]65)C2)C1 [vincristine, reference compound], the “in-vitro-inhibition of the macrophage-phagocytosis” value (macrophage-phagocytosis) is listed as “in-vitro-inhibitionof the macrophage-phagocytosis has been found” and the “effect in the granulocytic test” value [1] is listed as “no effects have been found”.
Work on COc1cccc2c1cc([N+](=O)[O-])c1c(C(=O)O)cc3c(c12)OCO3 [aristolochic acid] yielded an activation at 0.0001 % ([2]; Homo sapiens, 1 h, PMNL, concentration 10^-4 %, read-out: Percental increase of the CL-response) of 85.1%, an activation at 1e-05 % ([2]; Homo sapiens, 1 h, PMNL, concentration 10^-5 %, read-out: Percental increase of the CL-response) of 93.5% and an activation at 1e-06 % ([2]; Homo sapiens, 1 h, PMNL, concentration 10^-6 %, read-out: Percental increase of the CL-response) of 68.3%. It also gave an activation at 1e-07 % ([2]; Homo sapiens, 1 h, PMNL, concentration 10^-7 %, read-out: Percental increase of the CL-response) of 61.9%, an activation at 1e-08 % ([2]; Homo sapiens, 1 h, PMNL, concentration 10^-8 %, read-out: Percental increase of the CL-response) of 58.7% and an activation at 1e-09 % ([2]; Homo sapiens, 1 h, PMNL, concentration 10^-9 %, read-out: Percental increase of the CL-response) of 31.3%. It also gave an activation at 0.0001 % ([2]; Homo sapiens, PMNL, 1 h, isolated granulocytes, concentration 10^-4 %, read-out: Increase of CL-response) of 126%, an activation at 1e-05 % ([2]; Homo sapiens, PMNL, 1 h, isolated granulocytes, concentration 10^-5 %, read-out: Increase of CL-response) of 160% and an activation at 1e-06 % ([2]; Homo sapiens, PMNL, 1 h, isolated granulocytes, concentration 10^-6 %, read-out: Increase of CL-response) of 69.8%. The activation at 1e-07 % ([2]; Homo sapiens, PMNL, 1 h, isolated granulocytes, concentration 10^-7 %, read-out: Increase of CL-response) was 52.8%, the activation at 1e-08 % ([2]; Homo sapiens, PMNL, 1 h, isolated granulocytes, concentration 10^-8 %, read-out: Increase of CL-response) was 93.4% and the Peak-Maximum [2, 4] was 4.80 cpm × 10^5. It also gave a tmax [2, 4] of 30.0 min, a Peak-Maximum [2, 5] of 5.52 cpm × 10^5 and a tmax [2, 5] of 32.6 min. It also gave a Peak-Maximum [2, 6] of 3.40 cpm × 10^5, a tmax [2, 6] of 34.6 min and a Peak-Maximum [2, 7] of 3.24 cpm × 10^5. It also gave a tmax [2, 7] of 32.0 min, a Peak-Maximum [2, 8] of 4.10 cpm × 10^5 and a tmax [2, 8] of 29.3 min. The “concentration of the efficiency maximum in the CL-test” value ([2]; isolated granulocytes, lower by a power of ten than in the granulocytic test) was 10^-5%, the activation at 0.001 % (diluted whole blood; concentration 10^-3 %) was 51.9% and the activation at 0.0001 % (diluted whole blood; concentration 10^-4 %) was 19.2%. It also gave an activation at 1e-05 % (diluted whole blood; concentration 10^-5 %) of 21.8%, an activation at 1e-06 % (diluted whole blood; concentration 10^-6 %) of 14% and an activation at 1e-07 % (diluted whole blood; concentration 10^-7 %) of 5.5%.
Compound CN(Cc1cnc2nc(N)nc(N)c2n1)c1ccc(C(=O)N[C@@H](CCC(=O)O)C(=O)O)cc1 [Methotrexat®, N-[4-[[(2,4-Diamino-6-pteridinyl)methyl]methylamino]benzoyl]-L-glutamic acid] has an inhibition at 2000 µg/mL [3] of 43%.
